Assay results as given in the supplement of paper PMC10307832.

What was measured:
Assay in all cases: relative viability (nuclei count vs DMSO), 5 days (fraction); higher = more cells survive
QS11 + Dasatinib = compound: C1CC2=C(C1)C=C(C=C2)OC3=NC(=C4C(=N3)N(C=N4)CC5=CC=C(C=C5)C6=CC=CC=C6)N[C@@H](CC7=CC=CC=C7)CO [QS11] + Cc1nc(Nc2ncc(C(=O)Nc3c(C)cccc3Cl)s2)cc(N2CCN(CCO)CC2)n1 [Dasatinib] (partner 0.075 µM)
Outline: (§1)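 Nuclei were stained with Hoechst during a one-step fixation (final 0.05% Triton X-100, 1% formaldehyde, 1 ug/ml Hoechst) carried out 5 days after dosing, then counted on 4× images. The cells, lung cancer lines in 1536-well plates, had been dosed by pin tool the day after seeding with one drug alone or a fixed anchor-drug dose plus five library-drug doses (not always all listed) in √10 steps. Relative viability is the nuclei count in treated wells divided by that in vehicle wells, and each value is the median of duplicate plates.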

AZ628 + Palbociclib = compound: CC1=C(C=C(C=C1)NC(=O)C2=CC(=CC=C2)C(C)(C)C#N)NC3=CC4=C(C=C3)N=CN(C4=O)C [AZ628] + CC(=O)c1c(C)c2cnc(Nc3ccc(N4CCNCC4)cn3)nc2n(C2CCCC2)c1=O [Palbociclib] (partner 0.5 µM)
Outline: as §1

AZ628 + Navitoclax = compound: CC1=C(C=C(C=C1)NC(=O)C2=CC(=CC=C2)C(C)(C)C#N)NC3=CC4=C(C=C3)N=CN(C4=O)C [AZ628] + CC1(C)CCC(c2ccc(Cl)cc2)=C(CN2CCN(c3ccc(C(=O)NS(=O)(=O)c4ccc(N[C@H](CCN5CCOCC5)CSc5ccccc5)c(S(=O)(=O)C(F)(F)F)c4)cc3)CC2)C1 [Navitoclax] (partner 0.5 µM)
Outline: as §1

Darinaparsin + AZD7762 = compound: C[As](C)SC[C@H](NC(=O)CC[C@H](N)C(=O)O)C(=O)NCC(=O)O [Darinaparsin] + NC(=O)Nc1cc(-c2cccc(F)c2)sc1C(=O)N[C@H]1CCCNC1 [AZD7762] (partner 0.2 µM)
Outline: as §1

Cell Line | relative viability (QS11 + Dasatinib; first compound 0.08 µM) | relative viability (QS11 + Dasatinib; first compound 0.253 µM) | relative viability (QS11 + Dasatinib; first compound 0.8 µM) | relative viability (QS11 + Dasatinib; first compound 2.53 µM) | relative viability (QS11 + Dasatinib; first compound 8 µM) | relative viability (AZ628 + Palbociclib; first compound 0.08 µM) | relative viability (AZ628 + Palbociclib; first compound 0.253 µM) | relative viability (AZ628 + Palbociclib; first compound 0.8 µM) | relative viability (AZ628 + Palbociclib; first compound 2.53 µM) | relative viability (AZ628 + Palbociclib; first compound 8 µM) | relative viability (AZ628 + Navitoclax; first compound 0.08 µM) | relative viability (AZ628 + Navitoclax; first compound 0.253 µM) | relative viability (AZ628 + Navitoclax; first compound 0.8 µM) | relative viability (AZ628 + Navitoclax; first compound 2.53 µM) | relative viability (AZ628 + Navitoclax; first compound 8 µM) | relative viability (Darinaparsin + AZD7762; first compound 0.08 µM) | relative viability (Darinaparsin + AZD7762; first compound 0.8 µM) | relative viability (Darinaparsin + AZD7762; first compound 2.53 µM) | relative viability (Darinaparsin + AZD7762; first compound 8 µM)
SW 1573 | 0.537 | 0.635 | 0.545 | 0.393 | 0.329 | 0.409 | 0.312 | 0.275 | 0.291 | 0.173 | 0.905 | 0.746 | 0.851 | 0.902 | 0.436 |  |  |  | 
NCI-H358 | 0.144 | 0.171 | 0.189 | 0.393 | 0.656 | 0.126 | 0.131 | 0.136 | 0.142 | 0.123 |  |  |  |  |  | 0.478 | 0.581 | 0.591 | 0.522
HCC-44 |  |  |  |  |  | 1.01 | 0.942 | 0.96 | 0.958 | 1.15 | 0.966 | 1 | 0.996 | 1.06 | 0.874 | 1.02 | 1.03 | 1.08 | 1.05
NCI-H2342 | 0.318 | 0.323 | 0.299 | 0.35 | 0.348 | 0.544 | 0.513 | 0.562 | 0.511 | 0.537 |  |  |  |  |  | 0.642 | 0.463 | 0.418 | 0.498
NCI-H2023 | 0.634 | 0.475 | 0.555 | 0.572 | 0.618 | 0.45 | 0.381 | 0.239 | 0.406 | 0.153 | 1.01 | 1.02 | 1.03 | 0.996 | 0.762 |  |  |  | 
UMC-11 | 0.473 | 0.5 | 0.494 | 0.583 | 0.681 | 0.405 | 0.299 | 0.347 | 0.324 | 0.292 | 0.311 | 0.378 | 0.334 | 0.313 | 0.418 |  |  |  | 
NCI-H520 | 0.186 | 0.254 | 0.191 | 0.208 | 0.167 | 0.21 | 0.224 | 0.197 | 0.254 | 0.199 | 1.18 | 0.842 | 1.05 | 0.968 | 0.772 |  |  |  | 
COR-L23 | 0.505 | 0.59 | 0.552 | 0.358 | 0.355 | 0.327 | 0.293 | 0.257 | 0.268 | 0.187 | 1.02 | 1.12 | 1.2 | 1.07 | 0.492 |  |  |  | 
NCI-H522 | 0.857 | 0.826 | 0.922 | 0.975 | 1.07 | 0.947 | 0.954 | 0.842 | 1.04 | 0.75 |  |  |  |  |  | 0.764 | 0.895 | 0.809 | 0.883
NCI-H650 | 0.424 | 0.428 | 0.497 | 0.4 | 0.352 | 0.366 | 0.425 | 0.475 | 0.545 | 0.374 |  |  |  |  |  | 0.94 | 0.882 | 0.941 | 0.95
COR-L 105 | 0.281 | 0.267 | 0.334 | 0.423 | 0.331 | 0.368 | 0.368 | 0.429 | 0.344 | 0.453 | 0.81 | 0.967 | 0.761 | 0.655 | 0.652 |  |  |  | 
NCI-H1648 |  |  |  |  |  | 0.264 | 0.268 | 0.224 | 0.253 | 0.274 |  |  |  |  |  |  | 0.65 |  | 0.691
NCI-H1650 | 0.288 | 0.27 | 0.329 | 0.308 | 0.284 | 0.471 | 0.372 | 0.335 | 0.302 | 0.42 | 1.34 | 1.22 | 1.38 | 1.15 | 0.949 |  |  |  | 
NCI-H1563 | 0.448 | 0.417 | 0.44 | 0.409 | 0.426 |  |  |  |  |  |  |  |  |  |  |  |  |  | 
NCI-H1703 |  |  |  |  |  |  |  |  |  |  | 0.751 | 0.311 | 0.294 | 0.354 | 0.253 | 0.199 | 0.186 |  | 0.132
ABC-1 | 0.577 | 0.436 |  | 0.605 | 0.571 | 0.795 | 0.586 | 0.5 | 0.884 | 0.712 |  |  |  |  |  | 0.747 | 0.82 | 0.851 | 0.968
Calu-6 |  |  |  |  |  |  |  |  |  |  | 0.926 | 0.494 | 0.317 | 0.595 | 0.152 |  |  |  | 
LCLC-103H | 0.403 | 0.511 | 0.447 | 0.601 | 0.576 | 0.478 | 0.48 | 0.44 | 0.314 | 0.417 |  |  |  |  |  | 0.813 | 0.74 | 0.727 | 0.777
NCI-H596 | 0.591 | 0.586 | 0.584 | 0.611 | 0.586 |  |  |  |  |  | 0.839 | 1 | 1.08 | 1.03 | 0.931 | 1.23 | 1.13 | 0.98 | 1.25
NCI-H1623 | 0.502 | 0.567 | 0.66 | 0.544 | 0.641 |  |  |  |  |  |  |  |  |  |  |  |  |  | 
A549 |  |  |  |  |  |  |  |  |  |  | 1.19 | 1.16 | 1.02 | 1.12 | 0.589 |  |  |  | 
